Tests used:
eEF2K [1] = target: T1, eEF2K (Homo sapiens, UniProt O00418); assay: Western blot analysis of eEF2K inhibition (p-EF2 Thr56) in MDA-MB-231 cells; assay type: cell-based; settings: for eEF2K inhibition potential (p-EF2 Thr56): MDA-MB-231 (TNBC) cells, 2.5 to 20 micromolar, 2 h; for eEF2K inhibition, reduced p-EF2 (Thr56) levels: MDA-MB-231 cells, 2.5 micromolar, 2 h treatment
T1 sequence (O00418 1-725): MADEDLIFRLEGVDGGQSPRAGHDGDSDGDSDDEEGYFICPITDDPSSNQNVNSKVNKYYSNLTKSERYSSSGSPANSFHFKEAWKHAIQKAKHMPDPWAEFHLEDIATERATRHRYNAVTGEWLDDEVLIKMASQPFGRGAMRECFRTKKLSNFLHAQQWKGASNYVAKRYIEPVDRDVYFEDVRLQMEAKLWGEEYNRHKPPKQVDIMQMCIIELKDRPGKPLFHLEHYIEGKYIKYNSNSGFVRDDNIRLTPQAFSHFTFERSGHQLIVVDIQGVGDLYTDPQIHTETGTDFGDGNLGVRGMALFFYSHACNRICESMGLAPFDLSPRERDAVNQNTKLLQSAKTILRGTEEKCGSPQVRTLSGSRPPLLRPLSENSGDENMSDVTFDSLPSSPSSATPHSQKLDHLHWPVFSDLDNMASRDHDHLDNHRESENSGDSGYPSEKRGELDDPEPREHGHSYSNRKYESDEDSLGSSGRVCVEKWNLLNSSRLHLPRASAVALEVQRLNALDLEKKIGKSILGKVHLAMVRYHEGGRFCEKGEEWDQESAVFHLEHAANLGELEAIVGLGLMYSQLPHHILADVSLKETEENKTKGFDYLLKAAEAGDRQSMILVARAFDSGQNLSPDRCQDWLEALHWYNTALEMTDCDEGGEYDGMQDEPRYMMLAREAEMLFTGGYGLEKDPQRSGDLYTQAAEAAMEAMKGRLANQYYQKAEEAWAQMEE
Protocol: MeOH: distilled water by volume (%) (70:30) was used as the mobile phase for HPLC analysis for the inventive compound and the flow rate was set to 1 mL min^−1. Triple negative breast cancer (TNBC) cell lines (ER-, PR- and HER2-) MDA-MB-231 cells were purchased from the American Type Culture Collection (ATCC) (Manassas, VA, USA). MDA-MB-231 cells were cultured in Dulbecco's modified Eagle's medium (DMEM)/F12 supplemented with 10% FBS (Fetal Bovine Serum) and 100 U mL^−1 penicillin and streptomycin. Specific antibodies (p-EF2 (Thr56) (2331S), eEF2 (2332S), eEF2K (3692S) and GAPDH (5174S)) were purchased from Cell Signaling Technology (CST).
Western blot analysis was carried out according to previously reported studies to evaluate the eEF2K inhibition activity for the synthesized compounds. The synthesized compound was applied to MDA-MB-231 cells in the range of various concentrations from 2.5 to 20 micromolar for 2 h treatment. The expression levels of p-EF2 (Thr56) inhibition and eEF2K activity were determined by using related antibodies such as p-EF2 (Thr56), eEF2 and eEF2K. Glyceraldehyde 3-phosphate dehydrogenase (GAPDH) was used as a loading control.
To determine the effects of the synthesized compounds in inhibiting eEF2K activity in TNBC, MDA-MB-231 cells, we performed western blot analysis at concentrations ranging from 2.5 micromolar to 20 micromolar in a dose-dependent manner. eEF2K inhibition was detected by decreased phosphorylation levels of EF2 (p-EF2-Thr-56), a direct downstream substrate of the enzyme.

eEF2K [2] = target: T1, eEF2K; settings: cited from earlier work; for eEF2K inhibition (reported, in words): literature

| eEF2K inhibition potential (p-EF2 Thr56) (eEF2K [1]) | eEF2K inhibition, reduced p-EF2 (Thr56) levels (eEF2K [1]) | eEF2K inhibition, reduced p-EF2 (Thr56) levels (eEF2K [1]; listed as compound of the invention) | Structure (SMILES) | eEF2K inhibition (reported, in words) (eEF2K [2]) | concentration reported to inhibit eEF2K (eEF2K [2]; literature [44-46]) [µM] |
| --- | --- | --- | --- | --- | --- |
| did not show any inhibition potential |  |  | CCc1cccc2c3c([nH]c12)C(CC)(CC(=O)O)OCC3 (racemic) [Etodolac, (R,S)-2-[1,8-diethyl-1,3,4-tetrahydropyrano [3,4-b]indol-1-yl]acetic acid] |  |  |
| high inhibition potential | highest phospho-eEF2 (Thr56) inhibition | marked inhibition of eEF2K | CCc1cccc2c3c([nH]c12)C(CC)(CC(=O)N1CCN(C)CC1)OCC3 (stereo not shown) [Inventive compound, 2-(1,8-diethyl-1,3,4,9-tetrahydropyrano [3,4-b]indol-1-yl)-1-(4-methylpiperazin-1-yl) ethan-1-one] |  |  |
|  |  |  | CCCCCCCCCCCCCCCCn1cc[n+](Cc2ccccc2)c1C.[I-] [NH125] | does not inhibit EF2K but rather increases eEF2 phosphorylation |  |
|  |  |  | Cc1cc(C=C2C(=O)C=CC2=O)cc(C)c1O [TX1918] | did not show significant eEF2K inhibition | 10 |

— patent US20260049091A1, “2-(1,8-DIETHYL-1,3,4,9-TETRAHYDROPYRANO[3,4-B]INDOL-1-YL)-1-(4-METHYLPIPERAZIN-1-YL)ETHAN-1-ONE ETODOLAC DERIVATIVE AS EUKARYOTIC ELONGATION FACTOR 2 KINASE (EEF2K) INHIBITOR FOR TARGETED CANCER THERAPY” (BAHCESEHIR UNIVERSITESI, priority 2023, published 2026)
